Reference: patent publication US9796671B2, “Aurora kinase inhibitors” (REGENTS OF THE UNIVERSITY OF MINNESOTA, priority 2012, dated 2017)

Legend:
Assay in all cases: Kinase profile assay (Millipore)
Assay type in all cases: biochemical
JNK2 alpha2 = biological target: T1, JNK2 alpha2 (Homo sapiens, UniProt P45984); conditions: 5 μM
T1 construct: purchased Millipore
Protocol: (§1) A kinase profile assay was performed by Millipore, to examine other potential targets of Compound 1. Only Akt2 activity was suppressed more than 50% after 5 μM compound 1 treatment, compared with the control (Table 2). In addition, the kinase activity of Aurora A was decreased less than 25% at 5 μM Compound 1.

FAK = biological target: T2, FAK (Homo sapiens, UniProt Q05397); conditions: read-out: kinase activity compared with the control
T2 construct: purchased Millipore
Protocol: as §1

CSK = biological target: T3, CSK (Homo sapiens, UniProt P41240); conditions: 5 μM
T3 construct: purchased Millipore
Protocol: as §1

c-Kit = biological target: T4, c-Kit (Homo sapiens, UniProt P10721); conditions: read-out: kinase activity compared with the control
T4 construct: purchased Millipore
Protocol: as §1

GSK3 alpha = biological target: T5, GSK3 alpha (Homo sapiens, UniProt P49840); conditions: read-out: kinase activity compared with the control
T5 construct: purchased Millipore
Protocol: as §1

Met = biological target: T6, Met (Homo sapiens, UniProt P08581); conditions: 5 μM
T6 construct: purchased Millipore
Protocol: as §1

GSK3 beta = biological target: T7, GSK3 beta (Homo sapiens, UniProt P49841); conditions: read-out: kinase activity compared with the control
T7 construct: purchased Millipore
Protocol: as §1

PDK1 = biological target: T8, PDK1 (Homo sapiens, UniProt O15530); conditions: read-out: kinase activity compared with the control
T8 construct: purchased Millipore
Protocol: as §1

Abl = biological target: T9, Abl (Homo sapiens, UniProt P00519); conditions: read-out: kinase activity compared with the control
T9 construct: purchased Millipore
Protocol: as §1

mTOR = biological target: T10, mTOR (Homo sapiens, UniProt P42345); conditions: read-out: kinase activity compared with the control
T10 construct: purchased Millipore
Protocol: as §1

AMPK-alpha2 = biological target: T11, AMPK-alpha2 (Homo sapiens, UniProt P54646); conditions: read-out: kinase activity compared with the control
T11 construct: purchased Millipore
Protocol: as §1

JNK1 alpha1 = biological target: T12, JNK1 alpha1 (Homo sapiens, UniProt P45983); conditions: 5 μM
T12 construct: purchased Millipore
Protocol: as §1

MAPK1 = biological target: T13, MAPK1 (Homo sapiens, UniProt P27361); conditions: read-out: kinase activity compared with the control
T13 construct: purchased Millipore
Protocol: as §1

PI3-K gamma = PI3-K gamma (Homo sapiens, UniProt P48736); conditions: read-out: kinase activity compared with the control
Protocol: as §1

Aurora A = biological target: T14, Aurora A (Homo sapiens, UniProt O14965)
T14 construct: purchased Millipore
T14 sequence (O14965 1-403): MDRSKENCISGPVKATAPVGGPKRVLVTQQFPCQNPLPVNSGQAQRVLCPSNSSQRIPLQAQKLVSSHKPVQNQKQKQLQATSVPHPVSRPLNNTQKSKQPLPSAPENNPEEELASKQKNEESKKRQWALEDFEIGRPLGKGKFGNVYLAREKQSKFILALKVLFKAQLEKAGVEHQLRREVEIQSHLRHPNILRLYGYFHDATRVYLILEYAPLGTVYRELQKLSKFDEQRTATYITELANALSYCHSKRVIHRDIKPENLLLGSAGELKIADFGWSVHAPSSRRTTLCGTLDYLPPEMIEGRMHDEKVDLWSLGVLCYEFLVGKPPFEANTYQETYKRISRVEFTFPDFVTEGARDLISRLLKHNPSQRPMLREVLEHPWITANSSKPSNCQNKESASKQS
Protocol: as §1

MKK4 = biological target: T15, MKK4 (Mus musculus, UniProt P47809); conditions: read-out: kinase activity compared with the control
T15 construct: purchased Millipore
Protocol: as §1

EGFR (T790M, L858R) = biological target: T16, EGFR (T790M, L858R) (Homo sapiens, UniProt P00533, L858R/T790M); conditions: 5 μM
T16 construct: purchased Millipore
Protocol: as §1

Flt3 = biological target: T17, Flt3 (Homo sapiens, UniProt P36888); conditions: read-out: kinase activity compared with the control
T17 construct: purchased Millipore
Protocol: as §1

mTOR/FKBP12 = biological target: T18, mTOR/FKBP12 (Homo sapiens, UniProt P42345); conditions: read-out: kinase activity compared with the control
T18 construct: purchased Millipore
Protocol: as §1

PKB alpha (Akt1) = biological target: T19, PKB alpha (Akt1) (Homo sapiens, UniProt P31749); conditions: read-out: kinase activity compared with the control
T19 construct: purchased Millipore
Protocol: as §1

MKK7 beta = biological target: T20, MKK7 beta (Homo sapiens, UniProt O14733); conditions: 5 μM
T20 construct: purchased Millipore
Protocol: as §1

MSK1 = biological target: T21, MSK1 (Homo sapiens, UniProt O75582); conditions: read-out: kinase activity compared with the control
T21 construct: purchased Millipore
Protocol: as §1

FGFR1 = biological target: T22, FGFR1 (Homo sapiens, UniProt P11362); conditions: read-out: kinase activity compared with the control
T22 construct: purchased Millipore
Protocol: as §1

PI3-K beta = PI3-K beta (Homo sapiens, UniProt P42338); conditions: read-out: kinase activity compared with the control
Protocol: as §1

CDK2/cyclinA = biological target: T23, CDK2/cyclinA (Homo sapiens, UniProt P24941); conditions: 5 μM
T23 construct: purchased Millipore
Protocol: as §1

c-Src = biological target: T24, c-Src (Homo sapiens, UniProt P12931); conditions: read-out: kinase activity compared with the control
T24 construct: purchased Millipore
Protocol: as §1

PI3-K delta = PI3-K delta (Homo sapiens, UniProt O00329); conditions: read-out: kinase activity compared with the control
Protocol: as §1

AMPK-alpha1 = biological target: T25, AMPK-alpha1 (Homo sapiens, UniProt Q13131); conditions: read-out: kinase activity compared with the control
T25 construct: purchased Millipore
Protocol: as §1

Pim-1 = biological target: T26, Pim-1 (Homo sapiens, UniProt P11309); conditions: read-out: kinase activity compared with the control
T26 construct: purchased Millipore
Protocol: as §1

IGF-1R = biological target: T27, IGF-1R (Homo sapiens, UniProt P08069); conditions: read-out: kinase activity compared with the control
T27 construct: purchased Millipore
Protocol: as §1

T15 sequence (P47809 whole entry): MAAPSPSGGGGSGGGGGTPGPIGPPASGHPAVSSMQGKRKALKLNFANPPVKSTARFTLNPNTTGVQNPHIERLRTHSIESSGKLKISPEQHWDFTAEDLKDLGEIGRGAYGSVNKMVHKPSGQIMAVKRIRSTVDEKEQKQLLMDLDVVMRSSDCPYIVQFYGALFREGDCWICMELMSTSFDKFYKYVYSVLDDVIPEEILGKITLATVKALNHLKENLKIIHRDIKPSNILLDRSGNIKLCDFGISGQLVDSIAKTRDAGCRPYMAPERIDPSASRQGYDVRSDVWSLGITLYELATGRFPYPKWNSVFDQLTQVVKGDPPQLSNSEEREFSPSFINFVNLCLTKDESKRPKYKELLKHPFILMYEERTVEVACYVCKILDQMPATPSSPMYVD
T22 sequence (P11362 22-822, species assumed): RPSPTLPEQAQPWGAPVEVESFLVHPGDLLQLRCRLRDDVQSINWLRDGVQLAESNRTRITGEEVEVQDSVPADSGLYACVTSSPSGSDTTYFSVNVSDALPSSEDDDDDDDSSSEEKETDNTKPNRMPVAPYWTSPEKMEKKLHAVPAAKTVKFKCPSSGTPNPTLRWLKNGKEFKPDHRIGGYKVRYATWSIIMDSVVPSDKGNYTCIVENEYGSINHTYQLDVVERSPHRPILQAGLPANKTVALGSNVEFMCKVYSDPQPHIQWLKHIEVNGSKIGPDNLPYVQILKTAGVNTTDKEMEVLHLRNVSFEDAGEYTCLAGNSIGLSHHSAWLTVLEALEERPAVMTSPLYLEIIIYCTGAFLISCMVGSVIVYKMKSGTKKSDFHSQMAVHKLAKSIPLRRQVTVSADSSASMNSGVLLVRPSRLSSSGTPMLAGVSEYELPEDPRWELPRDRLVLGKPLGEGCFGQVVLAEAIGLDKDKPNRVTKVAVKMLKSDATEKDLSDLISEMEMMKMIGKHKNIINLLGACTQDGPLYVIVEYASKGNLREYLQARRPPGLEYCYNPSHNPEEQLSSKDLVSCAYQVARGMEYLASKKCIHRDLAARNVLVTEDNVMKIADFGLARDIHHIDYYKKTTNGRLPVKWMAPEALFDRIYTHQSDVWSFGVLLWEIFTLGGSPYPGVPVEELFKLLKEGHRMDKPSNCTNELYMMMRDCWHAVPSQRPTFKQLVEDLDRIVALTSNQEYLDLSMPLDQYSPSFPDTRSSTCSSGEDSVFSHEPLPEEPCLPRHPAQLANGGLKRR
T16 sequence (P00533 25-1210 T790M/L858R, species assumed): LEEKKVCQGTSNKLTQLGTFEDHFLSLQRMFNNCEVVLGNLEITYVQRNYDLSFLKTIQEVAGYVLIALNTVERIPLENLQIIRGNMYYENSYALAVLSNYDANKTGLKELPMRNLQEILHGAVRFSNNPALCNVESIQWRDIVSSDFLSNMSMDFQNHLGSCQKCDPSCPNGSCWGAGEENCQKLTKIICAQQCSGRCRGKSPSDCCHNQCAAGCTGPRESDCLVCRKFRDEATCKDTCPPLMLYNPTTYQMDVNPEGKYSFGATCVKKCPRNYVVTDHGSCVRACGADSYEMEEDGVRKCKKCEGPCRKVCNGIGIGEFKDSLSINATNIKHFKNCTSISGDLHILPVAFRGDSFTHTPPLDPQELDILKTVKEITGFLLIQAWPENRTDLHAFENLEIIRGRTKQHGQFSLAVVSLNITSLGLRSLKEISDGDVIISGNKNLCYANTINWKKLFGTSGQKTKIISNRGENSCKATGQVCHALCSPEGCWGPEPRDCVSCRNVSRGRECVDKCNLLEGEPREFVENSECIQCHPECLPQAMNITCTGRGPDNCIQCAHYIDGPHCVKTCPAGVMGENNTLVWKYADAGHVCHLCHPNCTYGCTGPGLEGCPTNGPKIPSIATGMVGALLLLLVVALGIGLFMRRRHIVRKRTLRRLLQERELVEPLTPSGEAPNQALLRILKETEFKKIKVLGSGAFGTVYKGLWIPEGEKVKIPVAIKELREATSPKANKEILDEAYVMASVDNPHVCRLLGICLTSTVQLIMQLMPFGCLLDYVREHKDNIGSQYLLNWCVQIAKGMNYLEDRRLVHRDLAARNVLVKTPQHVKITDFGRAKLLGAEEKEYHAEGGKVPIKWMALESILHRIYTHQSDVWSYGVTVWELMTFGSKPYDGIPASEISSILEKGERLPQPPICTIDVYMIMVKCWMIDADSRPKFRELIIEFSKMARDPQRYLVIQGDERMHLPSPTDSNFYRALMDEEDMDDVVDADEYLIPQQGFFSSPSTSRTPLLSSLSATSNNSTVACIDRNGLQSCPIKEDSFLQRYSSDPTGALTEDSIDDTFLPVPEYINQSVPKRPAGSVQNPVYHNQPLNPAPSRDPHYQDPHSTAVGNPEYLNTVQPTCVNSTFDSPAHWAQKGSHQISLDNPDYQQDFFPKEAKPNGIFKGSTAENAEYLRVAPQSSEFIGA
T13 sequence (P27361 whole entry): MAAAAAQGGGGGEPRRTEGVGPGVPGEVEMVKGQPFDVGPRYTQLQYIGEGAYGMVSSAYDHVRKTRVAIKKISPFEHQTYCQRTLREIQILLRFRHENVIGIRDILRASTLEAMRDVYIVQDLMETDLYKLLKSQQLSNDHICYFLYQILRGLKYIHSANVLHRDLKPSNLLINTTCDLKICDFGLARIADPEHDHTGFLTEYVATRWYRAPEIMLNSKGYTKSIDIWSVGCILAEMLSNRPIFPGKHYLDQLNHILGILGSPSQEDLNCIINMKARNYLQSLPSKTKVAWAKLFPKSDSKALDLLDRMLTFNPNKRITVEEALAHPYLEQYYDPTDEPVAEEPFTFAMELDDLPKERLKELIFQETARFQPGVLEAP
T17 sequence (P36888 27-993, species assumed): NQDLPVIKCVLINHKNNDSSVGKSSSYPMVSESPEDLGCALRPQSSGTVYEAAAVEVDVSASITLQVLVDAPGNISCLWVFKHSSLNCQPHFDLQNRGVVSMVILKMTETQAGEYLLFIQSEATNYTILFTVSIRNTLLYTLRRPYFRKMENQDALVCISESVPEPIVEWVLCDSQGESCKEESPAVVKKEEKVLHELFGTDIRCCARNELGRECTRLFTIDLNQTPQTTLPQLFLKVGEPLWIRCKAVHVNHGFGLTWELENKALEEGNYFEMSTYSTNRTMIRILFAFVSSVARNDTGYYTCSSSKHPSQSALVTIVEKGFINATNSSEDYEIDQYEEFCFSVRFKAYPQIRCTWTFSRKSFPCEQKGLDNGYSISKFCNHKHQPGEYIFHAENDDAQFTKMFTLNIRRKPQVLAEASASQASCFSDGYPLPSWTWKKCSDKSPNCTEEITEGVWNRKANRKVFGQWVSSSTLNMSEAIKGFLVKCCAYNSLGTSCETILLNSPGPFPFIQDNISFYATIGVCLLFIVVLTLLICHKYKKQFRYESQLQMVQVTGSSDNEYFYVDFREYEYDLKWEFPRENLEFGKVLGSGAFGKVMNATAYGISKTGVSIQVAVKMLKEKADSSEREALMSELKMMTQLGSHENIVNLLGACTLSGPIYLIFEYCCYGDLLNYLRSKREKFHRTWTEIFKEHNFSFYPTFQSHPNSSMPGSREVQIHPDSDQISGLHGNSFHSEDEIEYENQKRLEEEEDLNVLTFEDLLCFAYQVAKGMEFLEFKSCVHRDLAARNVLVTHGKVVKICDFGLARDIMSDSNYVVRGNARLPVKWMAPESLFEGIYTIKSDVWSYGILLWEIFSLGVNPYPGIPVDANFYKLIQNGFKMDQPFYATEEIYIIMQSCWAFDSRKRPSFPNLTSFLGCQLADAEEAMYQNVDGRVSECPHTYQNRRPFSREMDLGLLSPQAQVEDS
T7 sequence (P49841 whole entry, species assumed): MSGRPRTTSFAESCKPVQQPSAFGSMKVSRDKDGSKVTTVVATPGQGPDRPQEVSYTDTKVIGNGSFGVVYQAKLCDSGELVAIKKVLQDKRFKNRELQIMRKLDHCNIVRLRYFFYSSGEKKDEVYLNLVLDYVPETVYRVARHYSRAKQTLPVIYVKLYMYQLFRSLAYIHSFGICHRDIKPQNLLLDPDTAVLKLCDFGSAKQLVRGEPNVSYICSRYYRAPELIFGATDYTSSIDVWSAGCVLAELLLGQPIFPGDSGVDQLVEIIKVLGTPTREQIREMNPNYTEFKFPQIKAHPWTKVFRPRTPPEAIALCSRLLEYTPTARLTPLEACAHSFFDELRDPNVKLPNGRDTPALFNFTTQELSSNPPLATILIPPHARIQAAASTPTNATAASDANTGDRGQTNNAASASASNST
T1 sequence (P45984 whole entry): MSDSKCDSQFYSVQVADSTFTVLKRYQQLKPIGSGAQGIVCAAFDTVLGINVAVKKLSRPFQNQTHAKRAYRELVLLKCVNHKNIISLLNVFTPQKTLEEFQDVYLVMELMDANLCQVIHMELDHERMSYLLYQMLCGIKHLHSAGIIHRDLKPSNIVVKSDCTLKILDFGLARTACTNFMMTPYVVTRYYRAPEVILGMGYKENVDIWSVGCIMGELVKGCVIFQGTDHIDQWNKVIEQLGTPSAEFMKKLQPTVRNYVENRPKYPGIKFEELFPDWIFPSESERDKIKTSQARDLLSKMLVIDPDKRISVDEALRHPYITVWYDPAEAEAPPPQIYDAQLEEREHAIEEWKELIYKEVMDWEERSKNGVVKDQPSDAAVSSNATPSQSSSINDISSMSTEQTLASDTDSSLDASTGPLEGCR
T20 sequence (O14733 whole entry): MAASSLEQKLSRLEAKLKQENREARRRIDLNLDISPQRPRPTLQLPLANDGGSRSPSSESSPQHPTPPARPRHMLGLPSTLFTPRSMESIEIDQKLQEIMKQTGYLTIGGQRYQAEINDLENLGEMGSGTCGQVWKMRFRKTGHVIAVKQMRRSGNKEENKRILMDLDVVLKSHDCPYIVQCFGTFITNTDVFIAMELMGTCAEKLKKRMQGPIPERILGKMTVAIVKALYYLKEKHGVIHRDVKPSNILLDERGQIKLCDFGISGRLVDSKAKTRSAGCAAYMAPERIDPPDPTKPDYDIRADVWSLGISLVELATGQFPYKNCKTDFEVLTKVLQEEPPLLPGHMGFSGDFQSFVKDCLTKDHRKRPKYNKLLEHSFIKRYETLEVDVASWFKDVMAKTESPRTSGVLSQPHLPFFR

`O=C(/C=C/c1ccc2c(c1)OCO2)/C=C1/C(=O)Nc2ccccc21` [Compound 1] was tested. Which “kinase activity compared with the control” value (JNK2 alpha2) did it give?
Its value is 89.

And the remaining activity at 5 µM (FAK)?
Its remaining activity at 5 µM is 104%.

And the “kinase activity compared with the control” value (CSK)?
Its value is 110.

And the remaining activity at 5 µM (c-Kit)?
The remaining activity at 5 µM was 123%.

What about the remaining activity at 5 µM (GSK3 alpha) of the same compound?
The remaining activity at 5 µM was 85%.

And the “kinase activity compared with the control” value (Met)?
Its value is 89.

What about the remaining activity at 5 µM (GSK3 beta) of the same compound?
Its remaining activity at 5 µM is 94%.

And the remaining activity at 5 µM (PDK1)?
The remaining activity at 5 µM was 96%.

What about the remaining activity at 5 µM (Abl) of the same compound?
Its remaining activity at 5 µM is 109%.

What about the remaining activity at 5 µM (mTOR) of the same compound?
The remaining activity at 5 µM was 136%.

What about the remaining activity at 5 µM (AMPK-alpha2) of the same compound?
Its remaining activity at 5 µM is 90%.

And the “kinase activity compared with the control” value (JNK1 alpha1)?
The value was 104.

And the remaining activity at 5 µM (MAPK1)?
The remaining activity at 5 µM was 100%.

What about the remaining activity at 5 µM (PI3-K gamma) of the same compound?
Its remaining activity at 5 µM is 100%.

And the “kinase activity of Aurora A decreased (kinase profile)” value (Aurora A; 5 μM)?
The value was “less than 25%”.

What about the remaining activity at 5 µM (Aurora A; Aurora A, read-out: kinase activity compared with the control) of the same compound?
Its remaining activity at 5 µM is 76%.

And the remaining activity at 5 µM (MKK4)?
Its remaining activity at 5 µM is 130%.

What about the “kinase activity compared with the control” value (EGFR (T790M, L858R)) of the same compound?
The value was 101.

And the remaining activity at 5 µM (Flt3)?
The remaining activity at 5 µM was 92%.

And the remaining activity at 5 µM (mTOR/FKBP12)?
The remaining activity at 5 µM was 86%.

And the remaining activity at 5 µM (PKB alpha (Akt1))?
Its remaining activity at 5 µM is 68%.

And the “kinase activity compared with the control” value (MKK7 beta)?
Its value is 94.

And the remaining activity at 5 µM (MSK1)?
Its remaining activity at 5 µM is 98%.

And the remaining activity at 5 µM (FGFR1)?
Its remaining activity at 5 µM is 86%.

What about the remaining activity at 5 µM (PI3-K beta) of the same compound?
Its remaining activity at 5 µM is 103%.

And the “kinase activity compared with the control” value (CDK2/cyclinA)?
The value was 98.

And the remaining activity at 5 µM (c-Src)?
The remaining activity at 5 µM was 99%.

What about the remaining activity at 5 µM (PI3-K delta) of the same compound?
The remaining activity at 5 µM was 105%.

And the remaining activity at 5 µM (AMPK-alpha1)?
Its remaining activity at 5 µM is 96%.

And the remaining activity at 5 µM (Pim-1)?
Its remaining activity at 5 µM is 96%.

And the remaining activity at 5 µM (IGF-1R)?
The remaining activity at 5 µM was 105%.
